Tests used:
CDK7/Cyclin H/MAT1 = target: T1, CDK7/Cyclin H/MAT1 (Homo sapiens, UniProt P50613); experiment: in vitro kinase assay CDK7/Cyclin H/MAT1 (ADP-Glo); assay type: biochemical
T1 construct: purchased BPS Bioscience
Experimental: The in vitro enzymatic assays were conducted at BPS Bioscience. CDK9/Cyclin T1, CDK2/Cyclin 2A, CDK4/Cyclin D3, and CDK6/Cyclin D3 enzymatic activities were tested with an ATP Kinase-Glo Plus Luminescence kinase assay kit (Promega, V6073, Madison, WI, USA), while the CDK7/Cyclin H/MAT1 activities were tested using ADP-Glo Kinase (Promega, V6930). These assays measure kinase activity by quantifying the amount of ATP or ADP remaining in solution following a kinase reaction. The luminescent signal from the assay is correlated to the amount of ATP or ADP present and is inversely correlated to the kinase activity. The compounds were diluted to 10% DMSO and were added to the reaction so that the final concentration of DMSO was 1% in all reactions. All enzymatic reactions were conducted at 30 °C for 60 min. […] After the enzymatic reaction, the luminescence signal was measured using a BioTek Synergy 2 microplate reader (Agilent, Santa Clara, CA, USA). Kinase activity assays were performed in duplicate at each concentration and the percent of kinase activity was calculated as a ratio of luminescence intensities in the absence or in presence of the compounds. […] IC50 values were determined by the concentration causing a half-maximal percent activity (BPS Bioscience, San Diego, CA, USA).

[1] = design: method as in PMID 5646857; conditions: cited from earlier work
YB5 cells = experiment: GFP reactivation in YB5 cell-based system (flow cytometry); design: species or system human
Experimental: YB5 cells are derived from SW48 cells (human colon cancer cell line), and contain a single insertion of a DNA hypermethylated cytomegalovirus (CMV) promoter driving the green fluorescent protein (GFP) gene, as previously described. YB5 cells are cultured in L-15 medium supplemented with 10% fetal bovine serum and grown in log-phase in 1% CO2 atmosphere. YB5 cells were authenticated by DNA fingerprinting prior to drug screening and validation experiments. GFP expression in YB5 cells is silenced in >99.9% of the cells due to the CMV promoter DNA hypermethylation and repressive chromatin marks around the transcriptional start site. The human HCT116 colon cancer-derived GFP-reporter system, comprising a GFP gene under the control of an endogenously hypermethylated SFRP1 gene promoter, was kindly provided by Dr. Stephen Baylin (Johns Hopkins University). These cells are cultured in McCoy’s 5A medium supplemented with 10% fetal bovine serum and grown in log-phase in 5% CO2 atmosphere at 37 °C. The 451-Lu-BR melanoma cells were a kind gift from Dr. Raza Zaidi (Fels Institute for Cancer Research and Molecular Biology, Temple University School of Medicine, Philadelphia). These cells are derived from parental 451-LU cells that have acquired resistance to BRAF inhibitors. The 451-Lu-BR cells were cultured at 37 °C in Dulbecco’s Modified Eagle Medium (DMEM) supplemented with 10% fetal bovine serum, L-alanyl-L-glutamine (2 mM), and gentamycin (50 µg/mL) in 5% CO2 at 37 °C. The natural drug library (natural product set II) containing 120 compounds was obtained from the National Cancer Institute Developmental Therapeutics Program. Natural compounds were dissolved in DMSO (10 mM) in 96-well plates that were kept at −80°C until use. Toyocamycin, analogues of toyocamycin (sangivamycin, tubercidin, 3-deaza-adenosine, DZNep), CDK inhibitors, and epigenetic drugs (decitabine, SAHA, trichostatin A, depsipeptide) were purchased from Sigma-Aldrich (St. Louis, MO, USA,) for validation studies, dissolved in DMSO, and kept at −80 °C until use.
YB5 cells were seeded at 30,000 cell/mL in 96-well plates (6000 cells/well) and treated 3 days after seeding. Cells were exposed to 120 natural compounds in 5 different experimental conditions: (1) 72 h exposure at 10 µM followed by 24 h recovery period prior to analysis; (2) 24 h treatment at 50 µM prior to analysis; (3) 72 h exposure at 10 µM of the compound library followed by 24 h treatment with HDAC inhibitor trichostatin A (200 nM) prior to analysis; (4) 72 h exposure at 10 µM in simultaneous combination with decitabine (50 nM) followed by 24 h recovery period prior to analysis; and (5) 72 h treatment with decitabine (50 nM) followed by 24 h exposure with the natural compound library (50 µM) prior to analysis. The scheme of different dose schedules is shown Figure S1A. During screening, drugs and cell culture media were replaced every day. To ensure the quality and the reproducibility of the screen, each 96-well plate was designed to include 80 natural compounds, 4 untreated wells, 4 wells treated with decitabine (50 nM, 72 h), 4 wells treated with trichostatin A (200 nM, 24 h), and their combination with decitabine (50 nM, 72 h) followed by trichostatin A treatment (200 nM, 24 h) prior to flow cytometry analysis. The percentage of GFP-expressing cells in control wells (untreated or treated with known epigenetic drugs) was measured and was reproducible between different plates.
After treatment, YB5 cells were trypsinized for 15 min and resuspended in L-15 media containing propidium iodide (PI) to stain dead cells. GFP expression and PI staining were quantified by a BD LSR II flow cytometer (BD Biosciences, San Jose, CA, USA). A maximum of 10,000 cells was analyzed per well. Validations were performed using a Millipore Guava flow cytometer (EMD, Millipore, Burlington, MA, USA). […]

[2] = cell viability by Viacount, HCT116; assay type: cell-based; conditions: human, HCT116 colon cancer cells; 24 and 72 h, 50 nM to 50 µM, highest doses; read-out: cell viability relative to untreated cells
Experimental: Cell viability was measured in YB5 and HCT166 cells using Viacount (Luminex, Austin, TX, USA, 4000-0040) on a Guava flow cytometer (Millipore, Burlington, MA, USA). Colon cancer cells were grown in 96-well plates in the same conditions as in the drug screen and treated with toyocamycin and known CDK9 inhibitor BAY1251152 (Selleckchem, Houston, TX, USA). Cell culture media of each well was collected to harvest floating dead cells and kept aside for later. Cells were trypsinized (0.25% trypsin, Gibco, Waltham, MA, USA) for 5 min at 37 °C. Cell culture media of each well was added back to their corresponding wells to stop trypsinization and mixed thoroughly to obtain a single cell suspension. Viacount solution (Luminex, Austin, TX, USA, 4000-0040, 25 μL) was added to each well, and incubated (5 min at room temperature, in the dark) prior to cell viability analysis on the Guava flow cytometer.

T1 sequence (P50613 whole entry): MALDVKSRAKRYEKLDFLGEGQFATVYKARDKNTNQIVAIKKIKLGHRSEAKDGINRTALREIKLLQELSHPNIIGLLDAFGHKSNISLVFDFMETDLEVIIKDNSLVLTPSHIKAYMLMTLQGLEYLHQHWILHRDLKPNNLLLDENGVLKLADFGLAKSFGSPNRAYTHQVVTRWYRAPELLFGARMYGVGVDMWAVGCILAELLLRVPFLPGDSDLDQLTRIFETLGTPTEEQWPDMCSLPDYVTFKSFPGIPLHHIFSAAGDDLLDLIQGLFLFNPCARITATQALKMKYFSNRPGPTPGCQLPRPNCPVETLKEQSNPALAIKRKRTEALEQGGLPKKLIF
T1 sequence (P51946 whole entry partner): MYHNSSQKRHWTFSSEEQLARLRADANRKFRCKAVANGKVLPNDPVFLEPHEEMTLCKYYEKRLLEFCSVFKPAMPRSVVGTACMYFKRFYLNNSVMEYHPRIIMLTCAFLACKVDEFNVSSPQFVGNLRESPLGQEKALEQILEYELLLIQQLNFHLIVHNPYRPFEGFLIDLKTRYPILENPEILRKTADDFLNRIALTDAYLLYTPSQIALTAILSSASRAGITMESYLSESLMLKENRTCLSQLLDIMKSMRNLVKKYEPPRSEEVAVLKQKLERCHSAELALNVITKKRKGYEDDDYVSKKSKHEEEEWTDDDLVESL
T1 sequence (P51948 whole entry partner): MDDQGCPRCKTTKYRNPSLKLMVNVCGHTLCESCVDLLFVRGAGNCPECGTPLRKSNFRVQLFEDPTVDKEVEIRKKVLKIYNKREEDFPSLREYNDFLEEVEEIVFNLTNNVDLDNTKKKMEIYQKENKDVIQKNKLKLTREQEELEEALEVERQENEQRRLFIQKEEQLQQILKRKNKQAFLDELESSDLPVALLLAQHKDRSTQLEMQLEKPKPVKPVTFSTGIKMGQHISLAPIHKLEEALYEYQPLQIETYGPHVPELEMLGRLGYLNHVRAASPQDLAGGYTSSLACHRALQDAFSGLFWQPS

N#Cc1cn([C@@H]2O[C@H](CO)[C@@H](O)[C@H]2O)c2ncnc(N)c12 [toyocamycin, 7-Deaza-7-cyanoadenosine]
IC50 (CDK7/Cyclin H/MAT1): 2.8 µM | times less enzymatic inhibition of CDK7 as compared to CDK9 (CDK7/Cyclin H/MAT1; CDK7/Cyclin H/MAT1 vs CDK9/CycT1): 35 times | systemic toxic effects ([1]; 10–200 µg/kg for 5 days, intravenous infusion over 1–2 h, twenty-three cancer patients): No systemic toxic effects were observed | local toxicity ([1]; patients receiving the highest doses, intravenous infusion): local toxicity at the site of injection (severe phlebitis) | GFP-expressing YB5 cells (YB5 cells; 250 nM, 48 h): about 10% | YB5 cells expressing GFP (YB5 cells; 5 µM, 72 h): More than 60% | GFP expression, % of YB5 cells (YB5 cells; sequential combination with decitabine, toyocamycin 0.5–5 µM): up to 40% | GFP-expressing cells with CDK9 overexpression (HA-CDK9, FLAG-CDK9) (YB5 cells; toyocamycin 250 nM 48 h, MC180295 500 nM 48 h): reduction in the number of GFP-expressing cells | viability [2]: > 50%

Source: publication PMC9324262, “Selective CDK9 Inhibition by Natural Compound Toyocamycin in Cancer Cells” (Cancers, 2022)
